# Reference: EP2140864A2 (H. Lundbeck A/S, priority 2001, dated 2002)
# Where two headings read alike, the source gives them in different places.
# How the values were obtained:
# human dopamine D2 = molecular target: T1, human dopamine D2 (Homo sapiens, UniProt P14416); assay: Radioligand binding, dopamine D2 receptor
# T1 construct: purchased BioSignal, Inc. (Montreal, Canada)
# Excerpt: (§1) Other receptors: Cell membranes expressing human dopamine D1, D2, D4 and rat D3 receptors were purchased through BioSignal, Inc. (Montreal, Canada). Binding assays using the histamine H1 receptor; dopamine receptors; and α1A, α1E, and α2 adrenergic receptors may be carried out according to the procedures described in U.S. Patent No. 5,780,485, the disclosure of which is hereby incorporated by reference in its entirety into this application. Binding assays using the dopamine D5 receptor may be carried out according to the procedures described in U.S. Patent No. 5,882,855, the disclosure of which is hereby incorporated by reference in its entirety into this application. Binding assays for the human α1D adrenergic receptor may be carried out according to the procedures described in U.S. Patent No. 6,156,518, the disclosure of which is hereby incorporated by reference in its entirety into this application.
# (§2) Binding data were analyzed using nonlinear regression and statistical techniques available in the GraphPAD Prism package (San Diego, CA). Enzymatic assay data were derived from a standard curve of reference compound data.
# human dopamine D1 = molecular target: T2, human dopamine D1 (Homo sapiens, UniProt P21728); assay: Radioligand binding, dopamine D1 receptor
# T2 construct: purchased BioSignal, Inc. (Montreal, Canada); host or cells: membranes of cells expressing the receptor
# Excerpt: as §1, §2
# human α2C adrenoceptor = molecular target: T3, human α2C adrenoceptor (Homo sapiens, UniProt P18825); assay: Radioligand binding, α2C adrenergic receptor
# T3 construct: expressed in transfected cells
# T3 sequence (P18825 1-462): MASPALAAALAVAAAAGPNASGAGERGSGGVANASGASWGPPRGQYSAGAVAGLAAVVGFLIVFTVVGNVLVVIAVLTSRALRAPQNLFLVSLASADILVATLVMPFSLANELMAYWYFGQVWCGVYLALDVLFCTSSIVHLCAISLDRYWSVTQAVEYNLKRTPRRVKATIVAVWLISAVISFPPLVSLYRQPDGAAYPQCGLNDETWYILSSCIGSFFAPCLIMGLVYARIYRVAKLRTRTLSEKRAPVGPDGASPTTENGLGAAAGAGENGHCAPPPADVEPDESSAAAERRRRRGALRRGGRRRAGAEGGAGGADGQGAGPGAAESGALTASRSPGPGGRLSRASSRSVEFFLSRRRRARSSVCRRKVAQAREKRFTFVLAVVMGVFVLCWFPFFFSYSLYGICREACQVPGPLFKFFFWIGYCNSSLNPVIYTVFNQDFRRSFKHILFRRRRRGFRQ
# Excerpt: as §1, §2
# human α2B adrenoceptor = molecular target: T4, human α2B adrenoceptor (Homo sapiens, UniProt P18089); assay: Radioligand binding, α2B adrenergic receptor
# T4 construct: expressed in transfected cells
# T4 sequence (P18089 1-450): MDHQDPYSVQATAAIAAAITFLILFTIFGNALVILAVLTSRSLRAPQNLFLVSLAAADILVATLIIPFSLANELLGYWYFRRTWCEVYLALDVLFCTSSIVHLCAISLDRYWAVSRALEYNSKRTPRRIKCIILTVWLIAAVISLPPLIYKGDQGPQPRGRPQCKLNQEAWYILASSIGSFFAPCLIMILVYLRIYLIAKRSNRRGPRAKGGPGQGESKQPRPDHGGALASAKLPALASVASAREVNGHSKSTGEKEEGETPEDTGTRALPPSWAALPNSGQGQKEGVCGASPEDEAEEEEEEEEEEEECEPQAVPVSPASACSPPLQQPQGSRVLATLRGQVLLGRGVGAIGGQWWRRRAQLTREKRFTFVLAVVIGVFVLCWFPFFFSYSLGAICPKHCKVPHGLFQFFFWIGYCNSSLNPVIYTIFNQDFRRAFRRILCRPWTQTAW
# Excerpt: as §1, §2
# Human 5HT2A Receptor = molecular target: T5, Human 5HT2A Receptor (Homo sapiens, UniProt P28223); assay: Radioligand binding, 5HT2A receptor ([3H]ketanserin)
# T5 construct: expressed in transfected cells; host or cells: COS-7 cells (pCEXV-3 vector, DEAE-dextran)
# Protocol: Human 5HT2A Receptor: The coding sequence of the human 5HT2A receptor was obtained from a human brain cortex cDNA library, and cloned into the cloning site of pCEXV-3 eukaryotic expression vector. This construct was transfected into COS-7 cells by the DEAE-dextran method (Cullen, 1987). Cells were harvested after 72 hours and lysed by sonication in 5 mM Tris-HCl, 5 mM EDTA, pH 7.5. The cell lysates were subjected to centrifugation at 1000 rpm for 5 minutes at 4°C, and the supernatant was subjected to centrifugation at 30,000 x g for 20 minutes at 4°C. The pellet was suspended in 50 mM Tris-HCl buffer (pH 7.7 at room temperature) containing 10 mM MgS04, 0.5 mM EDTA, and 0.1% ascorbate. The affinity of compounds at 5HT2A receptors were determined in equilibrium competition binding assays using [^3H]ketanserin (1 nM). Nonspecific binding was defined by the addition of 10 µM mianserin. The bound radioligand was separated by filtration through GF/B filters using a cell harvester.
# as §2
# DA transporter = DA transporter (Rattus norvegicus, UniProt P23977); assay: Binding at native DA transporter
# Protocol: The binding properties of the compounds of the present invention were evaluated at one or more cloned receptors or native, tissue-derived transporters, using protocols described below.
# The methods to determine binding affinity at native transporters are described in the following publications: 5HT transporter and NE transporter (Owens et al., 1997), and DA transporter (Javitch et al, 1984).
# as §2
# human 5HT6 = molecular target: T6, human 5HT6 (Homo sapiens, UniProt P50406); assay: Radioligand binding, 5-HT6 receptor
# T6 construct: expressed in transfected cells
# Protocol: Other 5-HT Receptors: Other serotonin receptor binding assays were performed according to published methods: rat 5HT2C receptor (Julius et al., 1988); and 5-HT6 (Monsma, et al., 1993). The binding assays using the 5-HT4 receptor were performed according to the procedures described in U.S. Patent No. 5,766,879, the disclosure of which is hereby incorporated by reference in its entirety into this application.
# as §2
# [1] = Table 10; Ki hD2 divided by Ki hGAL3
# [2] = Table 10; Ki hD1 divided by Ki hGAL3
# [3] = Table 10; Ki hα2C divided by Ki hGAL3
# [4] = Table 10; Ki hα2B divided by Ki hGAL3
# [5] = Table 8; Ki h5HT2A divided by Ki hGAL3
# [6] = Table 8; Ki rDA Uptk divided by Ki hGAL3
# T2 sequence (P21728 whole entry): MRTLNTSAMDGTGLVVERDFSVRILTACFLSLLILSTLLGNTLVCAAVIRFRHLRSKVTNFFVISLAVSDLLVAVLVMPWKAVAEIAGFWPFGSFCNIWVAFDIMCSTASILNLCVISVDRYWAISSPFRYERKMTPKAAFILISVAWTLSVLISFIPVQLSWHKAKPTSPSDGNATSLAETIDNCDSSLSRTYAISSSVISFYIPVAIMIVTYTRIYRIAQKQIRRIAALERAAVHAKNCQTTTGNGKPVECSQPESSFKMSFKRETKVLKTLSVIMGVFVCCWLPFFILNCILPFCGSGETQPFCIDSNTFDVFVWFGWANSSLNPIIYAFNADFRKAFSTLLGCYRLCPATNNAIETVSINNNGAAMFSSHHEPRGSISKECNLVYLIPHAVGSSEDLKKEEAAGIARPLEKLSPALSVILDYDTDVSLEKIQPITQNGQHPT
# T5 sequence (P28223 whole entry): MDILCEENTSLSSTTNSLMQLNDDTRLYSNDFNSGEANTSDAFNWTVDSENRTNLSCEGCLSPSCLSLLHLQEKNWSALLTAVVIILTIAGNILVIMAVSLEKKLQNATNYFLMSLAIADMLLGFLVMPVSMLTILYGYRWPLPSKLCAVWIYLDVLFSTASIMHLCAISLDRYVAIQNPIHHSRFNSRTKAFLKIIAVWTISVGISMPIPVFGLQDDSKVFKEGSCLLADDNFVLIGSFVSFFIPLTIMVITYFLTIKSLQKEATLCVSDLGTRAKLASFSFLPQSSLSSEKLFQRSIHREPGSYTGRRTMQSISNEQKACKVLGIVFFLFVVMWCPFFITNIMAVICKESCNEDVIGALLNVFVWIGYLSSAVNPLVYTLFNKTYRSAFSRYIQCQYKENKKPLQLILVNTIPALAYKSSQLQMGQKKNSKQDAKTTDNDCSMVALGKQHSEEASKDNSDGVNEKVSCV
# T6 sequence (P50406 whole entry): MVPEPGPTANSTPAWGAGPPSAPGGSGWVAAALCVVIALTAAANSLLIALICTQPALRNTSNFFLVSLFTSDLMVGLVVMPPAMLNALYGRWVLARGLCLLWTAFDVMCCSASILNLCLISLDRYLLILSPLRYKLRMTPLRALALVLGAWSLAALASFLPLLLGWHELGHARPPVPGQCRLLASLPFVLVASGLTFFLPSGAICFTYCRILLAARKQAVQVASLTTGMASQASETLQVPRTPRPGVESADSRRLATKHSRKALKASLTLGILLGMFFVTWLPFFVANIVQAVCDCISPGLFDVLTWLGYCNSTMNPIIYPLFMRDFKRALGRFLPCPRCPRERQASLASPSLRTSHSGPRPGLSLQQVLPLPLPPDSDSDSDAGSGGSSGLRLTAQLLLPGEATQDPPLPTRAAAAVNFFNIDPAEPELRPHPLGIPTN
# Chain of DA transporter (P23977 whole entry): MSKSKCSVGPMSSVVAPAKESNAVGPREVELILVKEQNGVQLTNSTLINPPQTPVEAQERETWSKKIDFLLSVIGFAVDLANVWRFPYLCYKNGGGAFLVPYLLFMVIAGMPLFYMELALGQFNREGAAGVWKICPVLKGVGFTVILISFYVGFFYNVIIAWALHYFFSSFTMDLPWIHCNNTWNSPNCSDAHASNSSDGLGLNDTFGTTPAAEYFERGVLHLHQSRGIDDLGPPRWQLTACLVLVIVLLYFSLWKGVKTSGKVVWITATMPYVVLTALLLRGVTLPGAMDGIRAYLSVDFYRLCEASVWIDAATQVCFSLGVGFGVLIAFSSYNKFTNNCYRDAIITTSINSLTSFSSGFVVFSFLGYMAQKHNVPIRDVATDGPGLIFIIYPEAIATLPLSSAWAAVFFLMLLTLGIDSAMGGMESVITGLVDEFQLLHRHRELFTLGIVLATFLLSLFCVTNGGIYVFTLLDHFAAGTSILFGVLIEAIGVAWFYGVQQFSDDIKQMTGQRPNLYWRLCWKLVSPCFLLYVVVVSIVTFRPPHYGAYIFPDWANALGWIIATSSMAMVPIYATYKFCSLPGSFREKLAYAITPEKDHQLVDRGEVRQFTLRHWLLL
# T1 sequence (P14416 whole entry): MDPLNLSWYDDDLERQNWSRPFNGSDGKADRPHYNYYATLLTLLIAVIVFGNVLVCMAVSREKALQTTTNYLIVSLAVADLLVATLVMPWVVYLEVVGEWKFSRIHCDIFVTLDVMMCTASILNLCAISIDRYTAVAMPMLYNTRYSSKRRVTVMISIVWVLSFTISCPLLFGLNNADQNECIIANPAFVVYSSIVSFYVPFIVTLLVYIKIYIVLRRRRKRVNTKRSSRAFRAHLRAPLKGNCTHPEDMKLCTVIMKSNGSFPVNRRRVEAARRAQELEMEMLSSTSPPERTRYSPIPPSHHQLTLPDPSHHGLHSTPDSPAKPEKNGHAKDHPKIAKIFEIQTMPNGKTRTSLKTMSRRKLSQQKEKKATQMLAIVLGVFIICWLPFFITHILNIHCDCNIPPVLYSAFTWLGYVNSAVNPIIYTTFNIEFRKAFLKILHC
structure (smiles),measurement,setting,value
COC[C@@H]1[C@@H](c2ccccc2)OCCN1c1nc(Nc2ccc(C)cc2)cc(N2CCCCC2)n1 [Example 49],selectivity ratio hD2,human dopamine D2; [1],28
same,Ki,human dopamine D2; read-out: hD2 Ki; Table 9,5.94 µM
same,selectivity ratio hD1,human dopamine D1; [2],18
same,Ki,human dopamine D1; read-out: hD1 Ki; Table 9,3780 nM
same,selectivity ratio hα2C,human α2C adrenoceptor; [3],>30
same,Ki,human α2C adrenoceptor; read-out: hα2C Ki; Table 9,9.24 µM
same,selectivity ratio hα2B,human α2B adrenoceptor; [4],>100
same,Ki,human α2B adrenoceptor; read-out: hα2B Ki; Table 9,25.4 µM
same,selectivity ratio h5HT2A,Human 5HT2A Receptor; [5],>100
same,Ki,Human 5HT2A Receptor; read-out: h5HT2A Ki; Table 7,> 50000 nM
same,selectivity ratio rDA Uptk,DA transporter; [6],10
same,Ki,"DA transporter; read-out: rDA Uptk Ki; Table 7; native transporter, head prints r (rat)",2010 nM
same,Ki,human 5HT6; read-out: h5HT6 Ki; Table 7,13 nM
Cc1ccc(Nc2cc(N(C)C)nc(N(C)CCc3c[nH]c4ccccc34)n2)cc1 [Example 77],Ki,human dopamine D2; Table 9; read-out: hD2 Ki,0.91 µM
same,selectivity ratio hD2,human dopamine D2; [1],11
same,Ki,human dopamine D1; Table 9; read-out: hD1 Ki,60 nM
same,selectivity ratio hD1,human dopamine D1; [2],0.8
same,Ki,human α2C adrenoceptor; Table 9; read-out: hα2C Ki,0.634 µM
same,selectivity ratio hα2C,human α2C adrenoceptor; [3],8
same,Ki,human α2B adrenoceptor; Table 9; read-out: hα2B Ki,7.78 µM
same,selectivity ratio hα2B,human α2B adrenoceptor; [4],>30
same,Ki,Human 5HT2A Receptor; Table 7; read-out: h5HT2A Ki,2240 nM
same,selectivity ratio h5HT2A,Human 5HT2A Receptor; [5],28
same,Ki,"DA transporter; Table 7; native transporter, head prints r (rat); read-out: rDA Uptk Ki",2790 nM
same,selectivity ratio rDA Uptk,DA transporter; [6],>30
same,Ki,human 5HT6; Table 7; read-out: h5HT6 Ki,503 nM
same,selectivity ratio h5HT6,human 5HT6; Table 8; Ki h5HT6 divided by Ki hGAL3,6
